Reference: patent publication US6525001B1, “Substituted pyrimidine and pyridine herbicides” (Mid-American Commercialization Corporation, priority 1997, dated 2003)

Legend:
Experiment in all cases: Test B pre-/postemergence
Assay type in all cases: in vivo
Set-up in all cases: key: 0 is no effect; 10 is complete control
[1] = tested on: velvetleaf (Abutilon theophrasti)
How it was run: (§1)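 Scored visually 0 (none) to 10 (complete control) against untreated plants after twelve to sixteen greenhouse days. Test chemicals, formulated in surfactant-containing non-phytotoxic solvent, applied to soil after planting and, separately, onto 1- to 4-leaf (2–18 cm) plants.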

[2] = tested on: wheat (Triticum aestivum)
How it was run: as §1

[3] = tested on: cocklebur (Xanthium strumarium)
How it was run: as §1

[4] = tested on: bedstraw (Galium aparine)
How it was run: as §1

[5] = tested on: sugar beet (Beta vulgaris)
How it was run: as §1

[6] = tested on: corn (Zea mays)
How it was run: as §1

[7] = tested on: crabgrass (Digitaria sanguinalis)
How it was run: as §1

[8] = tested on: rape (Brassica napus)
How it was run: as §1

[9] = tested on: momingglory (Ipomoea hederacea)
How it was run: as §1

[10] = tested on: purple nutsedge (Cyperus rotundus)
How it was run: as §1

[11] = tested on: broadleaf signalgrass (Brachiaria decumbens)
How it was run: as §1

[12] = tested on: pigweed (Amaranthus retroflexus)
How it was run: as §1

[13] = tested on: soybean (Glycine max)
How it was run: as §1

[14] = tested on: giant foxtail (Setaria faberii)
How it was run: as §1

[15] = Preemergence, Rate 62 g/ha, scale of 0 to 10

## Cc1cnc(-c2ccc(C(F)(F)F)cc2)nc1Cn1ccc(C#N)n1 [Compound 53]
[1]; [15]
  Plant response rating, Velvetleaf: 0
[1]; Rate 62 g/ha, Postemergence
  Velvetleaf plant response rating: 6
[1]; Rate 125 g/ha, Postemergence
  Velvetleaf plant response rating: 6
[1]; Rate 125 g/ha, Preemergence
  Plant response rating, Velvetleaf: 2
[1]; Rate 250 g/ha, Postemergence
  Plant response rating, Velvetleaf: 7
[1]; Rate 250 g/ha, Preemergence
  Plant response rating, Velvetleaf: 4
[1]; Rate 500 g/ha, Postemergence
  Plant response rating, Velvetleaf: 7
[1]; Rate 500 g/ha, Preemergence
  Plant response rating, Velvetleaf: 8
[2]; [15]
  Plant response rating, Wheat: 0
[2]; Rate 62 g/ha, Postemergence
  Wheat plant response rating: 1
[2]; Rate 125 g/ha, Postemergence
  Wheat plant response rating: 1
[2]; Rate 125 g/ha, Preemergence
  Plant response rating, Wheat: 0
[2]; Rate 250 g/ha, Postemergence
  Plant response rating, Wheat: 1
[2]; Rate 250 g/ha, Preemergence
  Plant response rating, Wheat: 0
[2]; Rate 500 g/ha, Postemergence
  Plant response rating, Wheat: 2
[2]; Rate 500 g/ha, Preemergence
  Plant response rating, Wheat: 1
[3]; [15]
  Plant response rating, Cocklebur: 0
[3]; Rate 62 g/ha, Postemergence
  Cocklebur plant response rating: 5
[3]; Rate 125 g/ha, Postemergence
  Cocklebur plant response rating: 5
[3]; Rate 125 g/ha, Preemergence
  Plant response rating, Cocklebur: 0
[3]; Rate 250 g/ha, Postemergence
  Plant response rating, Cocklebur: 6
[3]; Rate 250 g/ha, Preemergence
  Plant response rating, Cocklebur: 0
[3]; Rate 500 g/ha, Postemergence
  Plant response rating, Cocklebur: 6
[3]; Rate 500 g/ha, Preemergence
  Plant response rating, Cocklebur: 1
[4]; [15]
  Plant response rating, Bedstraw: 1
[4]; Rate 62 g/ha, Postemergence
  Bedstraw plant response rating: 5
[4]; Rate 125 g/ha, Postemergence
  Bedstraw plant response rating: 8
[4]; Rate 125 g/ha, Preemergence
  Plant response rating, Bedstraw: 3
[4]; Rate 250 g/ha, Postemergence
  Plant response rating, Bedstraw: 10
[4]; Rate 250 g/ha, Preemergence
  Plant response rating, Bedstraw: 7
[4]; Rate 500 g/ha, Postemergence
  Plant response rating, Bedstraw: 10
[4]; Rate 500 g/ha, Preemergence
  Plant response rating, Bedstraw: 8
[5]; [15]
  Plant response rating, Sugarbeets: 4
[5]; Rate 62 g/ha, Postemergence
  Sugarbeets plant response rating: 9
[5]; Rate 125 g/ha, Postemergence
  Sugarbeets plant response rating: 10
[5]; Rate 125 g/ha, Preemergence
  Plant response rating, Sugarbeets: 8
[5]; Rate 250 g/ha, Postemergence
  Plant response rating, Sugarbeets: 10
[5]; Rate 250 g/ha, Preemergence
  Plant response rating, Sugarbeets: 9
[5]; Rate 500 g/ha, Postemergence
  Plant response rating, Sugarbeets: 10
[5]; Rate 500 g/ha, Preemergence
  Plant response rating, Sugarbeets: 9
[6]; [15]
  Plant response rating, Corn: 0
[6]; Rate 62 g/ha, Postemergence
  Corn plant response rating: 1
[6]; Rate 125 g/ha, Postemergence
  Corn plant response rating: 1
[6]; Rate 125 g/ha, Preemergence
  Plant response rating, Corn: 0
[6]; Rate 250 g/ha, Postemergence
  Plant response rating, Corn: 1
[6]; Rate 250 g/ha, Preemergence
  Plant response rating, Corn: 0
[6]; Rate 500 g/ha, Postemergence
  Plant response rating, Corn: 1
[6]; Rate 500 g/ha, Preemergence
  Plant response rating, Corn: 0
[7]; Rate 62 g/ha, Postemergence
  Crabgrass plant response rating: 1
[7]; Rate 125 g/ha, Postemergence
  Crabgrass plant response rating: 2
[7]; Rate 125 g/ha, Preemergence
  Plant response rating, Crabgrass: 4
[7]; Rate 250 g/ha, Postemergence
  Plant response rating, Crabgrass: 4
[7]; Rate 250 g/ha, Preemergence
  Plant response rating, Crabgrass: 6
[7]; Rate 500 g/ha, Postemergence
  Plant response rating, Crabgrass: 4
[7]; Rate 500 g/ha, Preemergence
  Plant response rating, Crabgrass: 8
[8]; [15]
  Plant response rating, Rape: 2
[8]; Rate 62 g/ha, Postemergence
  Rape plant response rating: 8
[8]; Rate 125 g/ha, Postemergence
  Rape plant response rating: 8
[8]; Rate 125 g/ha, Preemergence
  Plant response rating, Rape: 5
[8]; Rate 250 g/ha, Postemergence
  Plant response rating, Rape: 8
[8]; Rate 250 g/ha, Preemergence
  Plant response rating, Rape: 7
[8]; Rate 500 g/ha, Postemergence
  Plant response rating, Rape: 9
[8]; Rate 500 g/ha, Preemergence
  Plant response rating, Rape: 7
[9]; [15]
  Plant response rating, Morningglory: 1
[9]; Rate 125 g/ha, Postemergence
  Morningglory plant response rating: 3
[9]; Rate 125 g/ha, Preemergence
  Plant response rating, Morningglory: 2
[9]; Rate 250 g/ha, Preemergence
  Plant response rating, Morningglory: 2
[9]; Rate 500 g/ha, Postemergence
  Plant response rating, Morningglory: 3
[9]; Rate 500 g/ha, Preemergence
  Plant response rating, Morningglory: 5
[10]; [15]
  Plant response rating, Nutsedge: 0
[10]; Rate 62 g/ha, Postemergence
  Nutsedge plant response rating: 0
[10]; Rate 125 g/ha, Postemergence
  Nutsedge plant response rating: 0
[10]; Rate 125 g/ha, Preemergence
  Plant response rating, Nutsedge: 0
[10]; Rate 250 g/ha, Postemergence
  Plant response rating, Nutsedge: 0
[10]; Rate 250 g/ha, Preemergence
  Plant response rating, Nutsedge: 0
[10]; Rate 500 g/ha, Preemergence
  Plant response rating, Nutsedge: 0
[11]; Rate 62 g/ha, Postemergence
  B. signalgrass plant response rating: 1
[11]; Rate 62 g/ha, Preemergence
  B. signalgrass plant response rating: 0
[11]; Rate 125 g/ha, Postemergence
  B. signalgrass plant response rating: 1
[11]; Rate 125 g/ha, Preemergence
  Plant response rating, B. signalgrass: 1
[11]; Rate 250 g/ha, Postemergence
  Plant response rating, B. signalgrass: 2
[11]; Rate 250 g/ha, Preemergence
  Plant response rating, B. signalgrass: 2
[11]; Rate 500 g/ha, Postemergence
  Plant response rating, B. signalgrass: 2
[11]; Rate 500 g/ha, Preemergence
  Plant response rating, B. signalgrass: 6
[12]; [15]
  Plant response rating, Redroot pigweed: 0
[12]; Rate 62 g/ha, Postemergence
  Redroot pigweed plant response rating: 2
[12]; Rate 125 g/ha, Postemergence
  Redroot pigweed plant response rating: 6
[12]; Rate 125 g/ha, Preemergence
  Plant response rating, Redroot pigweed: 2
[12]; Rate 250 g/ha, Postemergence
  Plant response rating, Redroot pigweed: 7
[12]; Rate 250 g/ha, Preemergence
  Plant response rating, Redroot pigweed: 7
[12]; Rate 500 g/ha, Postemergence
  Plant response rating, Redroot pigweed: 7
[12]; Rate 500 g/ha, Preemergence
  Plant response rating, Redroot pigweed: 8
[13]; [15]
  Plant response rating, Soybean: 0
[13]; Rate 62 g/ha, Postemergence
  Soybean plant response rating: 5
[13]; Rate 125 g/ha, Postemergence
  Soybean plant response rating: 5
[13]; Rate 125 g/ha, Preemergence
  Plant response rating, Soybean: 0
[13]; Rate 250 g/ha, Postemergence
  Plant response rating, Soybean: 7
[13]; Rate 250 g/ha, Preemergence
  Plant response rating, Soybean: 0
[13]; Rate 500 g/ha, Postemergence
  Plant response rating, Soybean: 7
[13]; Rate 500 g/ha, Preemergence
  Plant response rating, Soybean: 0
[14]; [15]
  Plant response rating, Giant foxtail: 1
[14]; Rate 62 g/ha, Postemergence
  Giant foxtail plant response rating: 1
[14]; Rate 125 g/ha, Postemergence
  Giant foxtail plant response rating: 1
[14]; Rate 125 g/ha, Preemergence
  Plant response rating, Giant foxtail: 5
[14]; Rate 250 g/ha, Postemergence
  Plant response rating, Giant foxtail: 1
[14]; Rate 250 g/ha, Preemergence
  Plant response rating, Giant foxtail: 6
[14]; Rate 500 g/ha, Postemergence
  Plant response rating, Giant foxtail: 2
[14]; Rate 500 g/ha, Preemergence
  Plant response rating, Giant foxtail: 6
